Legend:
[1] = In vitro skin S9 metabolic stability assay (mouse); format: in vitro ADME; settings: mouse skin S9 sub-fraction, pH 7.4, 1.0 mg/mL protein, 1 mM NADPH, read-out: Half-Life; for half-life at 0.2 μM: Mouse skin S9, 0.2 μM; for half-life at 2 μM: Mouse skin S9, 2 μM
Experimental: (§1) Assay 6: In Vitro Skin S9 Metabolic Stability Assay
(§2) The objective of this assay was to assess the metabolic stability of compounds in human and mouse skin S9 sub-fraction. Human and mouse skin S9 sub-fractions obtained from Bioreclamation-IVT (Baltimore, Md.) were thawed on ice and diluted into 0.1M potassium phosphate buffer pH 7.4 to yield final incubation protein concentrations of 1.0 mg/mL. Test compounds (10 mM) were diluted into phosphate buffer to yield final incubation concentrations of 0.2 μM and 2.0 μM. Incubations were conducted at 37° C. temperature following addition of 1 mM NADPH and test aliquots were taken at time points 0, 5, 10, 20, 30 and 45 minutes. Each aliquot was crashed into water with 3% formic acid and 1 μM internal standard. The resulting samples were injected onto an LC-MS/MS system for analysis.
(§3) For each incubation, the peak area of the analytes in each t0 aliquot was set to 100% and the peak areas from subsequent time point aliquots were converted to percentage of parent compound remaining relative to t0. The percentage of parent compound remaining at each time point was converted to natural log scale and plotted versus time in minutes to determine a disappearance half-life.

[2] = In vitro skin S9 metabolic stability assay (human); format: in vitro ADME; settings: human skin S9 sub-fraction, pH 7.4, 1.0 mg/mL protein, 1 mM NADPH, read-out: Half-Life; for half-life at 0.2 μM: Human skin S9, 0.2 μM; for half-life at 2 μM: Human skin S9, 2 μM
Experimental: as §1, §2, §3

CCOc1ccc2ccc(=O)oc2c1 [7-Ethoxycoumarin, reference compound]
half-life at 0.2 μM [1]: > 30 min
half-life at 2 μM [1]: > 30 min
half-life at 0.2 μM [2]: > 30 min
half-life at 2 μM [2]: > 30 min

CC(Cc1cccc(C(F)(F)F)c1)NCCOC(=O)c1ccccc1 (centres unmarked) [Benfluorex, reference compound]
half-life at 0.2 μM [1]: < 15 min
half-life at 2 μM [1]: < 15 min
half-life at 0.2 μM [2]: < 15 min
half-life at 2 μM [2]: < 15 min
